Assay results published in US20230074545A1, “TREATMENT OF CANCER WITH CDK12/13 INHIBITORS” (Kinnate Biopharma Inc., priority 2019, published 2023).

What was measured:
Experiment in all cases: Radiometric kinase panel
Assay type in all cases: biochemical
MAP3K1 = molecular target: T1, MAP3K1 (Homo sapiens, UniProt Q13233)
T1 construct: either as full-length or enzymatically active fragments; purchased ProQinase GmbH (Reaction Biology); host or cells: Sf9 insect cells or E. coli (not specified per kinase)
T1 sequence (Q13233 whole entry, the tested form may be a part): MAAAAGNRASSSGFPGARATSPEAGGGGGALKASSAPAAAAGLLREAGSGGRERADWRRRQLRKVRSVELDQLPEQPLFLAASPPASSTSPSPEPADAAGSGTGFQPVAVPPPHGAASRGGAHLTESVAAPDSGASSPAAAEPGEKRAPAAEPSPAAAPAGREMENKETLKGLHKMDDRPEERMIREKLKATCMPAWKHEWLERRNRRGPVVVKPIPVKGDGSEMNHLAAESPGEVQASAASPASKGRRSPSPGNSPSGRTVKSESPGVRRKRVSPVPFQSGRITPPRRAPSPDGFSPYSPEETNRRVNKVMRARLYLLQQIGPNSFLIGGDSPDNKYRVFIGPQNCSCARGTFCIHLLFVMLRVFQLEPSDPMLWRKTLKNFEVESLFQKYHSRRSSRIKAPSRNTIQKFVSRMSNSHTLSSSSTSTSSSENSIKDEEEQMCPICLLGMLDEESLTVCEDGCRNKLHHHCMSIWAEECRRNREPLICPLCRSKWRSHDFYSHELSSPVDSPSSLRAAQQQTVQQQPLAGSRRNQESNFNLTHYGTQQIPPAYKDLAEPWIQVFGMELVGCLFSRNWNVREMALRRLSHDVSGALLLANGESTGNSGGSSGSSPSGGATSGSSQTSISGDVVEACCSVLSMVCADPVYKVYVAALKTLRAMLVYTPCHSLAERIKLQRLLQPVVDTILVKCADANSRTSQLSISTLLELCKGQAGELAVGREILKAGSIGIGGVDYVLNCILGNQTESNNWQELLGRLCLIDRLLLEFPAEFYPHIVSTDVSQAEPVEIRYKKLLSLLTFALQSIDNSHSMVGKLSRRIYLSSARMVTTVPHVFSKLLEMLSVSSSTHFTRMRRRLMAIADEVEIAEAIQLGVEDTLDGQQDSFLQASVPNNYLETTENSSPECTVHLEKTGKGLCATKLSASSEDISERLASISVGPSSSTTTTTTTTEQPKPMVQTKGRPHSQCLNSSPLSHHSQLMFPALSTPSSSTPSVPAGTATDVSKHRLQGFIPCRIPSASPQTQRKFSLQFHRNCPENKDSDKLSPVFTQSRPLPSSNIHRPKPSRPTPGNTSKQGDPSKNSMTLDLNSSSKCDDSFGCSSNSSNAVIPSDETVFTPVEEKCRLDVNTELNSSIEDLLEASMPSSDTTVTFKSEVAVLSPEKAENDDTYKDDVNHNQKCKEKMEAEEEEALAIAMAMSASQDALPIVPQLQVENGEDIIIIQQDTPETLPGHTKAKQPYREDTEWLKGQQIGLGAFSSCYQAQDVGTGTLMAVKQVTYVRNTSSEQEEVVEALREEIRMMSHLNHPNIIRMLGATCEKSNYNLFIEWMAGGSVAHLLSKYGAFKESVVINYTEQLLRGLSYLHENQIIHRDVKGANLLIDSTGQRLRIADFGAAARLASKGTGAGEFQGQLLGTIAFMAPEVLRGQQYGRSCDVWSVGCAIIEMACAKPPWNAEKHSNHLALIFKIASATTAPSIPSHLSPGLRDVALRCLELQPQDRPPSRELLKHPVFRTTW
Description: (§1) The compounds 1-5 (see Table 1) were assayed for kinase activity at ProQinase (ProQinase GmbH, Reaction Biology; Freiburg, Germany) using their commercially available radiometric kinase assay services. Briefly, the compounds were provided as solids and were dissolved to 1×10^−03 M/100% DMSO stock solutions on the day of assay. All protein kinases were provided by ProQinase and were expressed in Sf9 insect cells or in E. coli as recombinant GST-fusion proteins or His-tagged proteins, either as full-length or enzymatically active fragments. All kinases were produced from human cDNAs and purified by either GSH-affinity chromatography or immobilized metal. The purity of the protein kinases was examined by SDS-PAGE/Coomassie staining, the identity was checked by mass spectroscopy. A radiometric protein kinase assay (^33PanQinase® Activity Assay) was used for measuring the kinase activity of the protein kinase. All kinase assays were performed in 96-well FlashPlates™ from PerkinElmer (Boston, Mass., USA) in a 50 microliter reaction volume. The reaction cocktail was pipetted in four steps in the following order: 1) 25 microliter of assay buffer (standard buffer/[gamma-^33P]-ATP); 2) 10 microliter of ATP solution (in H2O); 3) 5 microliter of test compound (in 10% DMSO); 4) 10 microliter of enzyme/substrate mixture.
(§2) Compound 4 was analyzed for selectivity against a panel of other kinases at ProQinase using their commercially available radiometric kinase assay services and the methods described in Example 1.

STK17A = molecular target: T2, STK17A (Homo sapiens, UniProt Q9UEE5)
T2 construct: either as full-length or enzymatically active fragments; purchased ProQinase GmbH (Reaction Biology)
Description: as §1, §2

LIMK1 = molecular target: T3, LIMK1 (Homo sapiens, UniProt P53667)
T3 construct: either as full-length or enzymatically active fragments; purchased ProQinase GmbH (Reaction Biology)
Description: as §1, §2

LTK = molecular target: T4, LTK (Homo sapiens, UniProt P29376)
T4 construct: purchased ProQinase GmbH (Reaction Biology); host or cells: Sf9 insect cells or E. coli (not specified per kinase)
Description: as §1, §2

CAMK2A = molecular target: T5, CAMK2A (Homo sapiens, UniProt Q9UQM7)
T5 construct: either as full-length or enzymatically active fragments; purchased ProQinase GmbH (Reaction Biology)
T5 sequence (Q9UQM7 whole entry, the tested form may be a part): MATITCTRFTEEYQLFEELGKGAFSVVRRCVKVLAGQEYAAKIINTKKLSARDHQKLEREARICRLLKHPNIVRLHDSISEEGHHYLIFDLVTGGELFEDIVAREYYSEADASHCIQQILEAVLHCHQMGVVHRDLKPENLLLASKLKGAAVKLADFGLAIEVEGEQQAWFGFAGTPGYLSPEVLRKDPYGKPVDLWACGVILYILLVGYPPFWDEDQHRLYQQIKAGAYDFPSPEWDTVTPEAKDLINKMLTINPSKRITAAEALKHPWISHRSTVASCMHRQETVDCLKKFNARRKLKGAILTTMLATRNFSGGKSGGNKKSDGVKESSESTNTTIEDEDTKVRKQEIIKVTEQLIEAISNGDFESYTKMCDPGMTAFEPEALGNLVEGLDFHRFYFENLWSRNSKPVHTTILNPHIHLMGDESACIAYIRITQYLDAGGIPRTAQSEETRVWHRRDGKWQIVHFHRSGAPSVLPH
Description: as §1, §2

COT = molecular target: T6, COT (Homo sapiens, UniProt P41279)
T6 construct: either as full-length or enzymatically active fragments; purchased ProQinase GmbH (Reaction Biology)
Description: as §1, §2

CLK3 = molecular target: T7, CLK3 (Homo sapiens, UniProt P49761)
T7 construct: either as full-length or enzymatically active fragments; purchased ProQinase GmbH (Reaction Biology)
T7 sequence (P49761 whole entry, the tested form may be a part): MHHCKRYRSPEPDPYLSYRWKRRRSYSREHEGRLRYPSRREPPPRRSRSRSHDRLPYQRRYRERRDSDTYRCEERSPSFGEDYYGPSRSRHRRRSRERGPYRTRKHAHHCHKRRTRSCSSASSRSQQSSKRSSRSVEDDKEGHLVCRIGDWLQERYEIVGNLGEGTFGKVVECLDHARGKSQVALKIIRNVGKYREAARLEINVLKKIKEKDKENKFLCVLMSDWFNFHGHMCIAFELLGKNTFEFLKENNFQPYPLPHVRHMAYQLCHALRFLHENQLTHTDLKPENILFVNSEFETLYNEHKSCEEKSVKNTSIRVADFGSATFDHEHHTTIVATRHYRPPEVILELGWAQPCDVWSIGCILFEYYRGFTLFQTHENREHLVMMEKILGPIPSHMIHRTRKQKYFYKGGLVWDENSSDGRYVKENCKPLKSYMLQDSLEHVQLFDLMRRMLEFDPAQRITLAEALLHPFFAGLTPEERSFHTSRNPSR
Description: as §1, §2

SNK = molecular target: T8, SNK (Homo sapiens, UniProt Q9NYY3)
T8 construct: either as full-length or enzymatically active fragments; purchased ProQinase GmbH (Reaction Biology); host or cells: Sf9 insect cells or E. coli (not specified per kinase)
Description: as §1, §2

GSK3beta = molecular target: T9, GSK3beta (Homo sapiens, UniProt P49841)
T9 construct: either as full-length or enzymatically active fragments; purchased ProQinase GmbH (Reaction Biology)
Description: as §1, §2

CAMKK2 = molecular target: T10, CAMKK2 (Homo sapiens, UniProt Q96RR4)
T10 construct: either as full-length or enzymatically active fragments; purchased ProQinase GmbH (Reaction Biology); host or cells: Sf9 insect cells or E. coli (not specified per kinase)
T10 sequence (Q96RR4 whole entry, the tested form may be a part): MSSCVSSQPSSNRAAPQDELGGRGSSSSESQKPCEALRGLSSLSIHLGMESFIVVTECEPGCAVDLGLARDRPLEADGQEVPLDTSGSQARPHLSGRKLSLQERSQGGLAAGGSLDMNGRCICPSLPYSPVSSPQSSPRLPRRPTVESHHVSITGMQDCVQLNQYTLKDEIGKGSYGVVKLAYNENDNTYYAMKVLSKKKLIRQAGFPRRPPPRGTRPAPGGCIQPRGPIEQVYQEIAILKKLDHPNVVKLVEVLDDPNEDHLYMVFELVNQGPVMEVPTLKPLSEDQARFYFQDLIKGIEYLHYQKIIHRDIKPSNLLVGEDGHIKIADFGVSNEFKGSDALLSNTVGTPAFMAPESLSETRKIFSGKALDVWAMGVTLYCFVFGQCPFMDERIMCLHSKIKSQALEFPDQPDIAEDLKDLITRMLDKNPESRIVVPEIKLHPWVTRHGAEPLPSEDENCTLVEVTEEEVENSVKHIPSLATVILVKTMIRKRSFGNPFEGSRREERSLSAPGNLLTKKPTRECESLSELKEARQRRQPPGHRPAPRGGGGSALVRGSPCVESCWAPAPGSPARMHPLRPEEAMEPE
Description: as §1, §2

PLK1 = molecular target: T11, PLK1 (Homo sapiens, UniProt P53350)
T11 construct: either as full-length or enzymatically active fragments; purchased ProQinase GmbH (Reaction Biology)
T11 sequence (P53350 whole entry, the tested form may be a part): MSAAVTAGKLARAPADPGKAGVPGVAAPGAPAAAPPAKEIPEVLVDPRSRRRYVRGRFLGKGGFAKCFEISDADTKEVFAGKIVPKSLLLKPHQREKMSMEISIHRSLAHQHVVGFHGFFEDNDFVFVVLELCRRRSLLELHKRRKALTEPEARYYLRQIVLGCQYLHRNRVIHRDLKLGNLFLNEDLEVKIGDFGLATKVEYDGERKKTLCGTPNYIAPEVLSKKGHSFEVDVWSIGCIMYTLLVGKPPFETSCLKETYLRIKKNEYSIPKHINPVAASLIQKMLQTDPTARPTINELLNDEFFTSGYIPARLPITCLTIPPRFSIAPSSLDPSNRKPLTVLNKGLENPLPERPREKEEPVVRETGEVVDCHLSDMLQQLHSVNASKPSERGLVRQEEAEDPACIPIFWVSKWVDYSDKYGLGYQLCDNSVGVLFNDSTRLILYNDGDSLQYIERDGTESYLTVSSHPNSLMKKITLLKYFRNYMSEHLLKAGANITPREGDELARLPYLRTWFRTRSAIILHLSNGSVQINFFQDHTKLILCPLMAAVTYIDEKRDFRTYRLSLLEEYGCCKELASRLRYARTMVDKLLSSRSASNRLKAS
Description: as §1, §2

PIM3 = molecular target: T12, PIM3 (Homo sapiens, UniProt Q86V86)
T12 construct: either as full-length or enzymatically active fragments; purchased ProQinase GmbH (Reaction Biology)
Description: as §1, §2

CDK20/CycT1 = molecular target: T13, CDK20/CycT1 (Homo sapiens, UniProt Q8IZL9)
T13 construct: either as full-length or enzymatically active fragments; purchased ProQinase GmbH (Reaction Biology)
Description: as §1, §2

CSK = molecular target: T14, CSK (Homo sapiens, UniProt P41240)
T14 construct: either as full-length or enzymatically active fragments; purchased ProQinase GmbH (Reaction Biology)
Description: as §1, §2

EIF2AK3 = molecular target: T15, EIF2AK3 (Homo sapiens, UniProt Q9NZJ5)
T15 construct: either as full-length or enzymatically active fragments; purchased ProQinase GmbH (Reaction Biology); host or cells: Sf9 insect cells or E. coli
Description: as §1, §2

p38delta = molecular target: T16, p38delta (Homo sapiens, UniProt O15264)
T16 construct: either as full-length or enzymatically active fragments; purchased ProQinase GmbH (Reaction Biology)
Description: as §1, §2

DDR2 = molecular target: T17, DDR2 (Homo sapiens, UniProt Q16832)
T17 construct: either as full-length or enzymatically active fragments; purchased ProQinase GmbH (Reaction Biology)
Description: as §1, §2

S6Kbeta = molecular target: T18, S6Kbeta (Homo sapiens, UniProt Q9UBS0)
T18 construct: purchased ProQinase GmbH (Reaction Biology); host or cells: Sf9 insect cells or E. coli (not specified per kinase)
Description: as §1, §2

RPS6KA1 = molecular target: T19, RPS6KA1 (Homo sapiens, UniProt Q15418)
T19 construct: purchased ProQinase GmbH (Reaction Biology)
Description: as §1, §2

MEKK3 = molecular target: T20, MEKK3 (Homo sapiens, UniProt Q99759)
T20 construct: purchased ProQinase GmbH (Reaction Biology); host or cells: Sf9 insect cells or E. coli (not specified per kinase)
T20 sequence (Q99759 whole entry): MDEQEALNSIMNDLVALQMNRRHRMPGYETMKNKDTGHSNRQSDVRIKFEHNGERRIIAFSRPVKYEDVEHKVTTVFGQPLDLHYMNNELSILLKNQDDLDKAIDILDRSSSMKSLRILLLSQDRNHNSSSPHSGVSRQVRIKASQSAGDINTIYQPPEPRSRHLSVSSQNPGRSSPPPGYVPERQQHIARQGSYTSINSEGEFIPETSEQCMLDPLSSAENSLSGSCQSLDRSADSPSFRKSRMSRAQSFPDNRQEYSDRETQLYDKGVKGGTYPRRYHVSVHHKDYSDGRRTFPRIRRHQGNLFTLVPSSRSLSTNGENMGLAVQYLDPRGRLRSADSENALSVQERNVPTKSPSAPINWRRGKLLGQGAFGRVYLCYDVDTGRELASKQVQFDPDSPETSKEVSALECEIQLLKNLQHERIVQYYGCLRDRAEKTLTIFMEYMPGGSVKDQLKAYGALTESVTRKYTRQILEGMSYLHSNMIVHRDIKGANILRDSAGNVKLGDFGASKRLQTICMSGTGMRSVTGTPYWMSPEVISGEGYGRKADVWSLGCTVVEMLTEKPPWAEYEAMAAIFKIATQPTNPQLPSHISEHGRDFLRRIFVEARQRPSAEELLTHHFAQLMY
Description: as §1, §2

PKA = molecular target: T21, PKA (Homo sapiens, UniProt P17612)
T21 construct: either as full-length or enzymatically active fragments; purchased ProQinase GmbH (Reaction Biology); host or cells: Sf9 insect cells or E. coli
Description: as §1, §2

ACK1 = molecular target: T22, ACK1 (Homo sapiens, UniProt Q07912)
T22 construct: either as full-length or enzymatically active fragments; purchased ProQinase GmbH (Reaction Biology)
Description: as §1, §2

ASK1 = molecular target: T23, ASK1 (Homo sapiens, UniProt Q99683)
T23 construct: either as full-length or enzymatically active fragments; purchased ProQinase GmbH (Reaction Biology)
Description: as §1, §2

TLK1 = molecular target: T24, TLK1 (Homo sapiens, UniProt Q9UKI8)
T24 construct: purchased ProQinase GmbH (Reaction Biology)
T24 sequence (Q9UKI8 whole entry): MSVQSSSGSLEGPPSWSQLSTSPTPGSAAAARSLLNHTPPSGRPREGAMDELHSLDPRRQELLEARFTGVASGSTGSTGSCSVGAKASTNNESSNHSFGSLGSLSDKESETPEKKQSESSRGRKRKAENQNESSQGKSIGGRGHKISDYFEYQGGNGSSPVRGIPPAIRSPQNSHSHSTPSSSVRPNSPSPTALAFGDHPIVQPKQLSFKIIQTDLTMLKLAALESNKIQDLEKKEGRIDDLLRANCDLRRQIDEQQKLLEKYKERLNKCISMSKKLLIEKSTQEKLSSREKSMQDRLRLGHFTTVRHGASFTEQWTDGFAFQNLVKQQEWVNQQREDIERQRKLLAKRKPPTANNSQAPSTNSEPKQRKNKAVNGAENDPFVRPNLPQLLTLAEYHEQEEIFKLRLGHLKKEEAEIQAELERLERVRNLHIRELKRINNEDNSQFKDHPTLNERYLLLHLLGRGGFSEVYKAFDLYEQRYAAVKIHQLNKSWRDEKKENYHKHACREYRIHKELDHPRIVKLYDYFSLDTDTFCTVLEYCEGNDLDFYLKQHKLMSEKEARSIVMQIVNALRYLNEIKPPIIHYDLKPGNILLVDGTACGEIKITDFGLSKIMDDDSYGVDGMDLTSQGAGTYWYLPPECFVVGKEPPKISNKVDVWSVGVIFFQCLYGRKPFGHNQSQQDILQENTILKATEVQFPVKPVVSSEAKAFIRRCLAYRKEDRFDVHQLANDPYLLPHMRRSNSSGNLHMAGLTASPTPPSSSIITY
Description: as §1, §2

TEC = molecular target: T25, TEC (Homo sapiens, UniProt P42680)
T25 construct: either as full-length or enzymatically active fragments; purchased ProQinase GmbH (Reaction Biology)
Description: as §1, §2

JNK2 = molecular target: T26, JNK2 (Homo sapiens, UniProt P45984)
T26 construct: either as full-length or enzymatically active fragments; purchased ProQinase GmbH (Reaction Biology)
Description: as §1, §2

ZAP70 = molecular target: T27, ZAP70 (Homo sapiens, UniProt P43403)
T27 construct: either as full-length or enzymatically active fragments; purchased ProQinase GmbH (Reaction Biology)
Description: as §1, §2

BRK = molecular target: T28, BRK (Homo sapiens, UniProt Q13882)
T28 construct: purchased ProQinase GmbH (Reaction Biology); host or cells: Sf9 insect cells or E. coli (not specified per kinase)
Description: as §1, §2

MST3 = molecular target: T29, MST3 (Homo sapiens, UniProt Q9Y6E0)
T29 construct: either as full-length or enzymatically active fragments; purchased ProQinase GmbH (Reaction Biology)
Description: as §1, §2

GRK2 = molecular target: T30, GRK2 (Homo sapiens, UniProt P25098)
T30 construct: either as full-length or enzymatically active fragments; purchased ProQinase GmbH (Reaction Biology)
Description: as §1, §2

CDC42BPA = molecular target: T31, CDC42BPA (Homo sapiens, UniProt Q5VT25)
T31 construct: either as full-length or enzymatically active fragments; purchased ProQinase GmbH (Reaction Biology); host or cells: Sf9 insect cells or E. coli
Description: as §1, §2

C=CC(=O)Nc1ccc(C(=O)N2CC[C@@H](Nc3ncc(C#N)cn3)C2)cc1 [Compound 4, (R)-N-(4-(3-((5-cyanopyrimidin-2-yl)amino)pyrrolidine-1-carbonyl)phenyl)acrylamide]
inhibition at 1 µM (MAP3K1): 9% | inhibition at 1 µM (STK17A): -4% | inhibition at 1 µM (LIMK1): 7% | inhibition at 1 µM (LTK): 1% | inhibition at 1 µM (CAMK2A): -9% | inhibition at 1 µM (COT): 6% | inhibition at 1 µM (CLK3): -9% | inhibition at 1 µM (SNK): 9% | inhibition at 1 µM (GSK3beta): 8% | inhibition at 1 µM (CAMKK2): 9% | inhibition at 1 µM (PLK1): 7% | inhibition at 1 µM (PIM3): 4% | inhibition at 1 µM (CDK20/CycT1): 5% | inhibition at 1 µM (CSK): 7% | inhibition at 1 µM (EIF2AK3): 14% | inhibition at 1 µM (p38delta): 5% | inhibition at 1 µM (DDR2): -9% | inhibition at 1 µM (S6Kbeta): 1% | inhibition at 1 µM (RPS6KA1): -1% | inhibition at 1 µM (MEKK3): 1% | inhibition at 1 µM (PKA): 13% | inhibition at 1 µM (ACK1): 6% | inhibition at 1 µM (ASK1): 7% | inhibition at 1 µM (TLK1): -1% | inhibition at 1 µM (TEC): 5% | inhibition at 1 µM (JNK2): 6% | inhibition at 1 µM (ZAP70): -6% | inhibition at 1 µM (BRK): 1% | inhibition at 1 µM (MST3): 3% | inhibition at 1 µM (GRK2): 7% | inhibition at 1 µM (CDC42BPA): -16%
